Source: patent publication US7976841B2, “Anti TfR antibody” (Institut National de la Sante et de la Recherche, priority 2004, dated 2011)

Legend:
[1] = test system: tumor cells derived from ATL acute patients; experiment: Apoptosis assay (annexin V-FITC/PI, DIOC), acute ATL cells; type: cell-based, human
Experimental: Two million of PBMC from HTLV-1 patients were treated for 96 h with IL-2 and PHA in the presence or absence of A24 (10 μg/ml), 30.9 (10 μg/ml) or of the apoptosis-inducing agent VP16 (100 ng/ml). Cells were then washed with ice-cold PBS and incubated with a combination of annexin V-FITC and propidium iodide (PI) (Beckman-Coulter, Marseilles, France), according to the manufacturer recommendations. Alternatively, the apoptosis was evaluated through mitochondrial membrane depolarization with the DIOC staining (Molecular Probes) as described earlier (ZERMATI et al., J Exp Med., 193, 247-254, 2001).
Fe deprivation induces a variety of consequences, such as the reduction of cell proliferation and the activation of programmed cell death (HAQ et al., Exp Hematol., 23, 428-432, 1995), a phenomenon associated with phosphatidylserine exposure and mitochondrial membrane depolarization. […] The results are shown of FIGS. 7 A and 7B.
Comparative effect of A24, 30.9 and VP 16 on the induction of programmed cell death in selected cells. Cells were activated or not with PHA and IL-2 and incubated in the presence of 30.9, A24 and VP16. Apoptotic and necrotic cells were followed by flow cytometry using an annexin-V-FITC/PI kit. […] Data represents one out of three different experiments.

[2] = molecular target: T1, CD20 (Homo sapiens, UniProt P11836); experiment: CD20 expression at the surface of MCL cell lines, flow cytometry; type: cell-based; details: Rituximab 10 μg/ml, 30 minutes to 72 hours
T1 construct: target receptors TfR and CD20 at the surface of a MCL cell line EBV+ and a MCL cell line EBV^−; endogenous in cells; host or cells: MCL-derived B-cell lines (EBV+ and EBV-)
T1 sequence (P11836 1-297): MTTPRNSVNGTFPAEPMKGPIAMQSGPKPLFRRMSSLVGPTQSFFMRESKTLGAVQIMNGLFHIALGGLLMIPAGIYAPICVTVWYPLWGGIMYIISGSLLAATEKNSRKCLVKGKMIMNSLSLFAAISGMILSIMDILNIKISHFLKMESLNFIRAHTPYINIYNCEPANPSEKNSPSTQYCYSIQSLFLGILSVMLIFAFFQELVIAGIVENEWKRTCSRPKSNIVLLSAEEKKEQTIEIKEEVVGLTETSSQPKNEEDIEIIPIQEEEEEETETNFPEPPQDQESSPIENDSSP
Description: In a first time, we checked by flow cytometry the rate of expression of TfR and CD20 on […] B-cells lines (EBV+ and EBV^−) derived from MCL5. using an anti-CD71-PE antibody (Beckman-Coulter) and an anti-CD20-PE antibody (Becton Dickinson). The results are shown on FIGS. 8 A and B. The gray histograms respectively represent the rate of expression of the CD71 (A) and of the CD20 (B) at the surface of MCL cells EBV+ (a,b,c,e,f,g) or EBV^− (d). This rate is specified on each histogram after substraction of the background noise of the staining.
The results are shown on FIGS. 9A (A24) and 9B (Rituximab).

[3] = test system: EBV+ and EBV− MCL lines; experiment: MCL cell proliferation, radioactive thymidine incorporation; type: cell-based, human; details: 72 hours, […] to 20 μg/ml
Description: The cellular proliferation is expressed as a percent of the proliferation of untreated control cells. The results are shown on FIG. 10.

[4] = test system: resting T cells co-cultured with dendritic cells; experiment: Allogeneic Mixed Leukocyte Reaction (MLR), DC-induced T cell proliferation; type: cell-based, human; details: 6 days of culture
Description: Peripheral blood mononuclear cells (PBMC) were isolated as described earlier by the standard Ficoll-Paque method (Amersham Life Science, Buckinghamshire, U.K.) (BAZARBACHI et al, Blood., 93, 278-283, 1999). The healthy volunteers and the 4 acute and 3 chronic ATL patients (classified following Shirono criteria) (SHIRONO et al., Leukemia., 8, 1834-1837, 1994) had all given their informed consent. ATL tumor cells represented between 60-90% of the T cell population. Each cell type was freshly cultured in conditioned RPMI-1640 medium supplemented with 10% of fetal calf serum (FCS, Gibco BRL) and a mixture of interleukin-2 (20 U/ml IL-2) and phytohemagglutinin (4 μg/ml PHA). Mixed leukocyte reaction (MLR) was performed as described earlier (TORDJMAN et al., Nat Immunol., 3, 477-482, 2002). CIB tropical spastic paraparesis (HAM/TSP) cell line was cultured in RPMI-1640 medium supplemented with 10% of FCS.
To test if A24 could also block physiologically activated T cell proliferation, we examined the effect of A24 in allogeneic Mixed Leukocyte Reaction (MLR). DC-induced allogenic T cell proliferation was evaluated after 6 days of culture in the presence of A24, control antibody (30.9) or arsenic trioxide (Ars). The results are shown in FIG. 1 B. Data represents means SD of one out of three separate experiments. […]

[5] = test system: HTLV-1 infected T cell clones; experiment: Emergence of HTLV-1 infected T cell clones, 2-week culture; type: cell-based, human; details: chronic ATL PBMC, single dose on first day, 2 weeks
Experimental: HTLV-1 infected cells can proliferate in vitro, but the clones that proliferate in culture are generally not the same as those that proliferate in the patient. To verify if A24 could inhibit the emergence of HTLV-1 infected T cell clones, we cultured cells freshly isolated from patients and from healthy individuals in the presence or absence of A24. PBMC from HTLV-1 infected patients with a chronic ATL form were plated in culture wells with the 30.9, A24 or Ars for 2 weeks. Emergence of HTLV-1 clones was evaluated by [3H] thymidine incorporation. After 2 weeks of culture, the appearance of proliferating cells was assessed by [3H] thymidine incorporation.

[6] = test system: PBMC from HTLV-I infected patients with acute or chronic ATL; experiment: Proliferation of PBMC from ATL patients, PHA/IL-2, [3H] thymidine incorporation; type: cell-based, human; details: PHA/IL-2, 72 h
Experimental: (§1) PBMC were resuspended in RPMI-1640 with 10% FCS, and added in triplicates at the concentration of 10^5 cells/well in 96-well tissue culture plates (Falcon, Oxnard, Calif.). Proliferation was measured over 18 h, using pulses with 1 μCi/well of [^3H]-thymidine (Amersham Life Science, Buckinghamshire, U.K.). Cells were then harvested with a 96-well Harvester (Pharmacia, St. Quentin, France), collected on filters (Pharmacia) and the incorporation of [^3H] thymidine was measured with β-plate microscintillation counter (LKB, Pharmacia).
PBMC from healthy individuals (a) and HTLV-I infected patients with an acute ATL (b) or a chronic ATL (c) were plated in culture wells with A24 or a control antibody (30.9) in the presence of PHA/IL-2, for 72 h before [3H] thymidine incorporation. The results are shown on FIG. 2C.
(§2) TfR expression is essential for the proliferation of both normal and malignant T cells. While TfR expression in normal T cells is tightly coupled to interleukin-2 receptor expression, TfR expression in malignant cells is usually constitutive. It was previously shown that the anti-IL-2Rα can efficiently block the ex vivo proliferation of cells derived from chronic ATL patients. […] Proliferation of these cells was then measured by [^3H] thymidine incorporation. […]

[7] = test system: peripheral blood leukocytes (PBMC); experiment: Proliferation of PHA/IL-2-activated PBMC from healthy individuals, [3H]-thymidine incorporation; type: cell-based, human; details: PHA/IL-2, 72 h
Experimental: as §1
To investigate the activity of A24 on peripheral blood leukocytes (PBMC) proliferation, cells were activated with PHA/IL-2 and incubated with different concentrations of A24 (0 to 50 μg/ml) or control antibody (30.9) (0 to 50 μg/ml) for 72 h before [^3H]-thymidine incorporation.
as §2

With `COc1cc([C@@H]2c3cc4c(cc3[C@@H](O[C@@H]3O[C@@H]5CO[C@@H](C)O[C@H]5[C@H](O)[C@H]3O)[C@H]3COC(=O)[C@H]23)OCO4)cc(OC)c1O` [VP 16] the annexin-V staining ([1]; A24 10 μg/ml, VP16 100 ng/ml, 96 h) was “a large population that stained brightly with annexin-V appeared” and the “DIOC staining (mitochondrial depolarization)” value ([1]; activated leukocytes from ATL acute patient) was “drastic reduction”.

“Rituximab: anti-CD20 antibody manufactured by Genentech” was tested, and the “expression of the CD20” value [2] was “does not induce notable reduction” and the “inhibition of MCL proliferation” value [3] was at most 20%.

In the case of arsenic trioxide, the “effect on T cell proliferation” value [4] is reported as “block T cell proliferation” and the “effect on proliferation of HTLV-1 infected T cell clones” value [5] is reported as “more efficient than A24”.

B1: anti-IL-2Rα: anti-IL-2Rα monoclonal antibody (Zenapax from Hoffmann-La Roche) (antibody, chains of the INN, looked up, V domains shown)
VH: QVQLVQSGAEVKKPGSSVKVSCKASGYTFTSYRMHWVRQAPGQGLEWIGYINPSTGYTEYNQKFKDKATITADESTNTAYMELSSLRSEDTAVYYCARGGGVFDYWGQGTLVTVSS
VL: DIQMTQSPSTLSASVGDRVTITCSASSSISYMHWYQQKPGKAPKLLIYTTSNLASGVPARFSGSGSGTEFTLTISSLQPDDFATYYCHQRSTYPLTFGQGTKVEVK
With B1 the “effect on cell proliferation, acute ATL” value ([6]; acute ATL) was “did not block”, the “effect on cell proliferation, chronic ATL” value ([6]; chronic ATL) was “significantly inhibited” and the “effect on PHA/IL-2-induced cell proliferation” value [7] was “significantly inhibited”.
